How the values were obtained:
[1] = molar heat capacity at constant pressure; conditions: Liquid, Flow calorimetry
[2] = Liquid; for mass density: Vibrating tube method; for viscosity: Concentric cylinders viscometry

Cc1ccc(C)c(C)c1 [1,2,4-trimethylbenzene]
Conditions	mass density [kg/m3]	molar heat capacity at constant pressure [J/K/mol]	viscosity [mPa·s]
[1], 293.15 K, 100 kPa	–	216.2	–
[1], 293.15 K, 5000 kPa	–	215	–
[1], 293.15 K, 10000 kPa	–	213.3	–
[1], 293.15 K, 15000 kPa	–	212.5	–
[1], 293.15 K, 20000 kPa	–	210.8	–
[1], 293.15 K, 25000 kPa	–	209.8	–
[1], 313.15 K, 100 kPa	–	222.5	–
[1], 313.15 K, 5000 kPa	–	221.2	–
[1], 313.15 K, 10000 kPa	–	219.6	–
[1], 313.15 K, 15000 kPa	–	218.5	–
[1], 313.15 K, 20000 kPa	–	217.7	–
[1], 313.15 K, 25000 kPa	–	217.1	–
[1], 333.15 K, 100 kPa	–	229.2	–
[1], 333.15 K, 5000 kPa	–	227.9	–
[1], 333.15 K, 10000 kPa	–	227.1	–
[1], 333.15 K, 15000 kPa	–	225.9	–
[1], 333.15 K, 20000 kPa	–	224.8	–
[1], 333.15 K, 25000 kPa	–	223.5	–
[2], 273.15 K, 100 kPa	891.7	–	–
[2], 273.15 K, 1000 kPa	892.3	–	–
[2], 273.15 K, 2000 kPa	892.9	–	–
[2], 273.15 K, 5000 kPa	894.6	–	–
[2], 273.15 K, 10000 kPa	897.4	–	–
[2], 273.15 K, 15000 kPa	900.2	–	–
[2], 273.15 K, 20000 kPa	902.8	–	–
[2], 273.15 K, 30000 kPa	908	–	–
[2], 273.15 K, 40000 kPa	912.9	–	–
[2], 273.15 K, 50000 kPa	917.5	–	–
[2], 273.15 K, 60000 kPa	921.9	–	–
[2], 273.15 K, 70000 kPa	926.2	–	–
[2], 273.15 K, 80000 kPa	930.3	–	–
[2], 273.15 K, 90000 kPa	934.2	–	–
[2], 273.15 K, 100000 kPa	938	–	–
[2], 273.15 K, 110000 kPa	941.7	–	–
[2], 273.15 K, 120000 kPa	945.2	–	–
[2], 273.15 K, 130000 kPa	948.6	–	–
[2], 273.15 K, 140000 kPa	952	–	–
[2], 283.15 K, 100 kPa	883.3	–	–
[2], 283.15 K, 1000 kPa	883.9	–	–
[2], 283.15 K, 2000 kPa	884.5	–	–
[2], 283.15 K, 5000 kPa	886.3	–	–
[2], 283.15 K, 10000 kPa	889.3	–	–
[2], 283.15 K, 15000 kPa	892.2	–	–
[2], 283.15 K, 20000 kPa	895	–	–
[2], 283.15 K, 30000 kPa	900.3	–	–
[2], 283.15 K, 40000 kPa	905.4	–	–
[2], 283.15 K, 50000 kPa	910.2	–	–
[2], 283.15 K, 60000 kPa	914.8	–	–
[2], 283.15 K, 70000 kPa	919.3	–	–
[2], 283.15 K, 80000 kPa	923.5	–	–
[2], 283.15 K, 90000 kPa	927.5	–	–
[2], 283.15 K, 100000 kPa	931.4	–	–
[2], 283.15 K, 110000 kPa	935.2	–	–
[2], 283.15 K, 120000 kPa	938.9	–	–
[2], 283.15 K, 130000 kPa	942.4	–	–
[2], 283.15 K, 140000 kPa	945.8	–	–
[2], 293.15 K, 100 kPa	875.1	–	0.888
[2], 293.15 K, 1000 kPa	875.7	–	–
[2], 293.15 K, 2000 kPa	876.3	–	–
[2], 293.15 K, 5000 kPa	878.2	–	–
[2], 293.15 K, 10000 kPa	881.4	–	–
[2], 293.15 K, 15000 kPa	884.4	–	–
[2], 293.15 K, 20000 kPa	887.3	–	–
[2], 293.15 K, 30000 kPa	892.9	–	–
[2], 293.15 K, 40000 kPa	898.2	–	–
[2], 293.15 K, 50000 kPa	903.2	–	–
[2], 293.15 K, 60000 kPa	908	–	–
[2], 293.15 K, 70000 kPa	912.6	–	–
[2], 293.15 K, 80000 kPa	916.9	–	–
[2], 293.15 K, 90000 kPa	921.1	–	–
[2], 293.15 K, 100000 kPa	925.1	–	–
[2], 293.15 K, 110000 kPa	929	–	–
[2], 293.15 K, 120000 kPa	932.8	–	–
[2], 293.15 K, 130000 kPa	936.4	–	–
[2], 293.15 K, 140000 kPa	939.9	–	–
[2], 303.15 K, 100 kPa	867	–	0.779
[2], 303.15 K, 1000 kPa	867.6	–	–
[2], 303.15 K, 2000 kPa	868.3	–	–
[2], 303.15 K, 5000 kPa	870.3	–	–
[2], 303.15 K, 10000 kPa	873.6	–	–
[2], 303.15 K, 15000 kPa	876.8	–	–
[2], 303.15 K, 20000 kPa	879.8	–	–
[2], 303.15 K, 30000 kPa	885.7	–	–
[2], 303.15 K, 40000 kPa	891.2	–	–
[2], 303.15 K, 50000 kPa	896.4	–	–
[2], 303.15 K, 60000 kPa	901.4	–	–
[2], 303.15 K, 70000 kPa	906.1	–	–
[2], 303.15 K, 80000 kPa	910.6	–	–
[2], 303.15 K, 90000 kPa	914.9	–	–
[2], 303.15 K, 100000 kPa	919.1	–	–
[2], 303.15 K, 110000 kPa	923.1	–	–
[2], 303.15 K, 120000 kPa	927	–	–
[2], 303.15 K, 130000 kPa	930.7	–	–
[2], 303.15 K, 140000 kPa	934.3	–	–
[2], 313.15 K, 100 kPa	859	–	0.692
[2], 313.15 K, 1000 kPa	859.7	–	–
[2], 313.15 K, 2000 kPa	860.4	–	–
[2], 313.15 K, 5000 kPa	862.6	–	–
[2], 313.15 K, 10000 kPa	866	–	–
[2], 313.15 K, 15000 kPa	869.3	–	–
[2], 313.15 K, 20000 kPa	872.6	–	–
[2], 313.15 K, 30000 kPa	878.7	–	–
[2], 313.15 K, 40000 kPa	884.5	–	–
[2], 313.15 K, 50000 kPa	889.9	–	–
[2], 313.15 K, 60000 kPa	895	–	–
[2], 313.15 K, 70000 kPa	899.9	–	–
[2], 313.15 K, 80000 kPa	904.6	–	–
[2], 313.15 K, 90000 kPa	909	–	–
[2], 313.15 K, 100000 kPa	913.3	–	–
[2], 313.15 K, 110000 kPa	917.4	–	–
[2], 313.15 K, 120000 kPa	921.4	–	–
[2], 313.15 K, 130000 kPa	925.2	–	–
[2], 313.15 K, 140000 kPa	928.9	–	–
[2], 323.15 K, 100 kPa	851.3	–	0.62
[2], 323.15 K, 1000 kPa	852	–	–
[2], 323.15 K, 2000 kPa	852.7	–	–
[2], 323.15 K, 5000 kPa	855	–	–
[2], 323.15 K, 10000 kPa	858.6	–	–
[2], 323.15 K, 15000 kPa	862.1	–	–
[2], 323.15 K, 20000 kPa	865.5	–	–
[2], 323.15 K, 30000 kPa	871.9	–	–
[2], 323.15 K, 40000 kPa	877.9	–	–
[2], 323.15 K, 50000 kPa	883.5	–	–
[2], 323.15 K, 60000 kPa	888.9	–	–
[2], 323.15 K, 70000 kPa	894	–	–
[2], 323.15 K, 80000 kPa	898.8	–	–
[2], 323.15 K, 90000 kPa	903.4	–	–
[2], 323.15 K, 100000 kPa	907.8	–	–
[2], 323.15 K, 110000 kPa	912	–	–
[2], 323.15 K, 120000 kPa	916.1	–	–
[2], 323.15 K, 130000 kPa	920	–	–
[2], 323.15 K, 140000 kPa	923.8	–	–
[2], 333.15 K, 100 kPa	843.6	–	0.562
[2], 333.15 K, 1000 kPa	844.4	–	–
[2], 333.15 K, 2000 kPa	845.2	–	–
[2], 333.15 K, 5000 kPa	847.6	–	–
[2], 333.15 K, 10000 kPa	851.4	–	–
[2], 333.15 K, 15000 kPa	855.1	–	–
[2], 333.15 K, 20000 kPa	858.6	–	–
[2], 333.15 K, 30000 kPa	865.3	–	–
[2], 333.15 K, 40000 kPa	871.6	–	–
[2], 333.15 K, 50000 kPa	877.4	–	–
[2], 333.15 K, 60000 kPa	883	–	–
[2], 333.15 K, 70000 kPa	888.2	–	–
[2], 333.15 K, 80000 kPa	893.2	–	–
[2], 333.15 K, 90000 kPa	898	–	–
[2], 333.15 K, 100000 kPa	902.5	–	–
[2], 333.15 K, 110000 kPa	906.9	–	–
[2], 333.15 K, 120000 kPa	911.1	–	–
[2], 333.15 K, 130000 kPa	915.1	–	–
[2], 333.15 K, 140000 kPa	919	–	–

From the NIST ThermoML archive (doi:10.1016/j.jct.2017.03.006)
